For data set [1], the system named is NSCLC U-1810 cells. The experiment in a line: MTT cytotoxicity assay in NSCLC U-1810 cells. Format: cell-based, human. The note with it: for Selectivity NSCLC cells (U-1810) vs. diploid fibroblasts (WI-38): calculated at IC50 (WI-38 IC50 / U-1810 IC50); for IC50 / viability at 113 µM: Homo sapiens; for IC50: U-1810, 72 h, MTT, 72 h post addition, estimated from cell viability curve; for viability at 113 µM: U-1810, at 113 µM, 72 h, read-out: cell viability. How it is done: (§1) Cytotoxicity structure-activity relationship analyses of compounds in NSCLC tumor cells and fibroblasts. Stock solutions (10 mg/mL) of the compounds to be tested were made in DMSO and further diluted with cell culture media prior to structure-activity relationship (SAR) screening as earlier described. To assess anti-tumor activity, the large cell lung carcinoma cell line NSCLC U-1810 (kind gift from Uppsala University) and diploid lung fibroblasts WI-38 [30] were used. U-1810 cells were propagated in RPMI-1640 medium (Sigma-Aldrich, St. Louis, […], USA) supplemented with FBS (10% HyClone) and L-glutamine (2 mmol/L, Invitrogen) while WI-38 fibroblasts were cultured in Eagle’s Minimum Essential Medium (Sigma-Aldrich) with 15% FBS and L-glutamine. For SAR assessment the cytotoxic assay 3-(4,5-dimethylthiazol-2-yl)-2,5 diphenyltetrazolium bromide (MTT) was applied. Profiling of U-1810 cells was carried out at 80% confluency (obtained by seeding 5000 cells/well in a 96-well plate for 24 h prior to treatment) and of WI-38 at 100% confluency (obtained by seeding 18,000 cells/well in a 96-well plate for 24 h prior to compound addition), the later to mimic the behavior of fibroblasts in the human body where they are non-dividing. For SAR evaluation, different concentrations of the compounds were added to fresh media while untreated cells were treated with DMSO corresponding to the amount applied when testing the highest concentration of the different compounds. The cytotoxicity of the compounds was assessed at 72 h post addition to cells by adding MTT solution (0.5 mg/mL, Sigma-Aldrich, 4 h at 37 °C) and dissolving the resulting formazan crystals in an SDS-containing solution (10% SDS and 0.01 mol/L HCl). Absorbance was quantified at 595 nm and the compound-induced cytotoxicity was calculated relative to that observed in DMSO-treated cells. The IC50 values were deduced from survival plots drawn in Graph Pad PRISM software vers.6 and for some of the compounds extrapolated as indicated in footnotes to Table 1.

The test system of data set [2] is NSCLC U-1810 cells. Set-up: method as in PMID 25319389. The note with it: 72 h; cited from earlier work.
Data set [3] deals with WI-38 diploid lung fibroblasts. On the set-up: method as in PMID 25319389. The note with it: 72 h; cited from earlier work.
A short description of data set [4]: MTT cytotoxicity assay in diploid lung fibroblasts WI-38. It is filed as cell-based, human. The note with it: human, WI-38 diploid lung fibroblasts, 72 h, read-out: cell viability; for viability at 72 h, 188 µM: WI-38, at 188 µM; for viability at 72 h, 113 µM: WI-38, at 113 µM. On the procedure: as §1
(In general: Tetrazolium dyes change colour on reduction, which living cells bring about.)

Data set [5] relates to WI-38 diploid lung fibroblasts. The data set is described as above. Format: cell-based, human. To be noted: Homo sapiens, WI-38, 72 h, MTT, 72 h post addition, confluent cells, estimated from cell viability curve. How it is done: as §1

The source of these data is paper PMC9032987, “Cytotoxic Alkylynols of the Sponge Cribrochalina vasculum: Structure, Synthetic Analogs and SAR Studies” (Marine Drugs, 2022).

The term IC50 denotes the concentration at which inhibition is half-maximal. By viability is commonly meant a read-out of living cells in per cent, often relative to untreated cells.

Read-outs that look alike come from different tables or passages of the source.

For the molecule `C#C[C@H](O)/C=C/CCCCCCCCC(C)CCCCCCCC` (stereo partly drawn) [Compound 23, (3R)-14-Methyldocos-(4E)-en-1-yn-3-ol], in the data set on NSCLC U-1810 cells [1], the “cytotoxic activity in NSCLC U-1810 cells (in words)” value was “equally active” and the “Selectivity NSCLC cells (U-1810) vs. diploid fibroblasts (WI-38)” value is 12.1. Besides, the half-inhibitory concentration (IC50) in the data set on NSCLC U-1810 cells [2] is 0.8 µM. Besides, the IC50 in data set [3] was 9.7 µM.
Turning to `C#C[C@H](O)CCCCCCCCCCCCCCC` [Compound R-32, (R)-octadec-1-yn-3-ol], the IC50 in the data set with NSCLC U-1810 cells [1] was 1.4 µM; in data set [5], above 188 µM. The viability at 72 h, 188 µM in data set [4] was around 60%.
For `C#C[C@@H](O)CCCCCCCCCCCCCCC` [Compound S-32, (S)-octadec-1-yn-3-ol], the half-maximal inhibitory concentration (IC50) in the data set with NSCLC U-1810 cells [1] was 140 µM; in data set [5] it was above 188 µM. Moreover, the viability at 72 h, 188 µM in data set [4] is around 80%.
Turning to `C#C[C@@H](CCCCCCCCCCCCCCC)OC(=O)[C@](OC)(c1ccccc1)C(F)(F)F` [R,R-34, (R)-((R)-octadec-1-yn-3-yl)-3,3,3-trifluoro-2-methoxy-2-phenylpropanoate], the half-maximal inhibitory concentration (IC50) (in the data set with NSCLC U-1810 cells [1]; in data set [5]) was above 113 µM each time. Further, the viability at 113 µM with NSCLC U-1810 cells [1] is around 100%. The viability at 72 h, 113 µM in data set [4] is around 100%.
For the molecule `C#C[C@H](CCCCCCCCCCCCCCC)OC(=O)[C@](OC)(c1ccccc1)C(F)(F)F` [S,R-34, (R)-((S)-octadec-1-yn-3-yl)-3,3,3-trifluoro-2-methoxy-2-phenylpropanoate], the IC50 (with NSCLC U-1810 cells [1]; in data set [5]) was above 113 µM in each case. The viability at 113 µM with NSCLC U-1810 cells [1] was around 96%. Moreover, the viability at 72 h, 113 µM in data set [4] is around 100%.
For `C#C[C@H](O)/C=C/CCCCCCCCCCCCCCC` [scal-18, (3R)-Icos-(4E)-en-1-yn-3-ol], in the data set on NSCLC U-1810 cells [1], the “cytotoxic activity in NSCLC U-1810 cells (in words)” value is “equally active” and the “Selectivity NSCLC cells (U-1810) vs. diploid fibroblasts (WI-38)” value is listed as 14.6. Further, the IC50 with NSCLC U-1810 cells [2] is 0.5 µM. Also, the half-maximal inhibitory concentration (IC50) in data set [3] was 7.3 µM.
